This experiment concerns the target T1, human mAChR M4 (Homo sapiens, UniProt P08173).
T1 construct: expressed in transfected cells
T1 sequence (P08173 1-479): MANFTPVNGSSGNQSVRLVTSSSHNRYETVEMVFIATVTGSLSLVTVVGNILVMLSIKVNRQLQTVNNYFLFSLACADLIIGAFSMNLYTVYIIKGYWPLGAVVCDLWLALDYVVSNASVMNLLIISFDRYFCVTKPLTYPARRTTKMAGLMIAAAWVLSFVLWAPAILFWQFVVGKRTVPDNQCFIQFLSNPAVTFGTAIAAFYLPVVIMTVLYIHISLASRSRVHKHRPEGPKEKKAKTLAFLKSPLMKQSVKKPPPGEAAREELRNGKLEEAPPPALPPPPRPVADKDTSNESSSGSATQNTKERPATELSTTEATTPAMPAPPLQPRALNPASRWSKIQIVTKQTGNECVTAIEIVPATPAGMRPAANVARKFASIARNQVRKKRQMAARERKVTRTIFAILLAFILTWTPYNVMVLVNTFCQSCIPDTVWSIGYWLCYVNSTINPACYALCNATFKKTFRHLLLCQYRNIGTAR
In words: mAChR M4 cell-based functional assay (calcium mobilization, CHO-K1 hM4-Gqi5 cells). To be noted: for Emax at 30 µM: CHO-K1, % ACh maximum at 30 μM, human M4; for EC50: positive allosteric modulator activity, increase in the EC20 acetylcholine response, CHO-K1 hM4-Gqi5 cells, read-out: Human M4 EC50; for Emax: CHO-K1. As for the experimental part: Human and rat M4 cDNAs, along with the chimeric G protein Gqi5, were transfected into Chinese hamster ovary (CHO-K1) cells purchased from the American Type Culture Collection using Lipofectamine2000. hM4-Gqi5 cells were grown in Ham's F-12 medium containing 10% heat-inactivated fetal bovine serum (FBS), 20 mM HEPES, 50 μg/mL G418 sulfate, and 500 μg/mL Hygromycin B. rM4-Ggi5 cells were grown in DiVEM containing 10% heat-inactivated FBS, 20 mM THEPES, 400 μμg/mL G418 sulfate, and 500 μμg/mL Hygromycin B.
For high throughput measurement of agonist-evoked increases in intracellular calcium, CHO-K1 cells stably expressing muscarinic receptors were plated in growth medium lacking G418 and hygromycin at 15,000 cells/20 μL/well in Greiner 384-well black-walled, tissue culture (TC)-treated, clear-bottom plates (VWR). Cells were incubated overnight at 37° C. and 5% CO2. The next day, cells were washed using an ELX 405 (BioTek) with assay buffer; the final volume was then aspirated to 20 μL. Next, 20 μL of a […] of Fluo-4/acetoxymethyl ester (Invitrogen, Carlsbad, CA), prepared as a 2.3 mM stock in DMSO and mixed in a 1:1 ratio with 10% (w/v) Pluronic F-127 and diluted in assay buffer, was added to the wells and the cell plates were incubated for 50 min at 37° C. and 5% C02. Dye was removed by washing with the ELX 405 and the final volume was aspirated to 20 μL. Compound master plates were formatted in an 11 point concentration-response curve (CRC) format (1:3 dilutions) in 100% DMSO with a starting concentration of 10 mM using a BRAVO liquid handler (Agilent). Test compound CRCs were then transferred to daughter plates (240 nL) using the Echo acoustic plate reformatter (Labcyte, Sunnyvale, CA) and then diluted into assay buffer (40 μL) to a 2× stock using a Thermo Fisher Combi (Thermo Fisher Scientific, Waltham, MA).
Calcium flux was measured using the Functional Drug Screening System (FDSS) 6000 or 7000 (Hamamatsu Corporation, Tokyo, Japan) as an increase in the fluorescent static ratio. Compounds were applied to cells (20 μL, 2×) using the automated system of the FDSS at 2-4 seconds into the protocol and the data were collected at 1 Hz. At 144 seconds, 10 μL of an EC20 concentration of the muscarinic receptor agonist acetylcholine was added (5×), followed by the addition of 12 μL of an EC80 concentration of acetylcholine at the 230 second time point (5×). Agonist activity was analyzed as a concentration-dependent increase in calcium mobilization upon compound addition. Positive allosteric modulator activity was analyzed as a concentration-dependent increase in the EC20 acetylcholine response. Antagonist activity was analyzed as a concentration-dependent decrease in the EC80 acetylcholine response. Concentration-response curves were generated using a four-parameter logistical equation in XLFit curve fitting software (IDBS, Bridgewater, NJ) for Excel (Microsoft, Redmond, WA) or Prism (GraphPad Software, Inc., San Diego, CA).
Compounds were synthesized as described above. Activity (EC50 and Emax) was determined in the mAChR M4 cell-based functional assay as described above and the data are shown in Table 2. The compound number corresponds to the compound numbers used in Table 1.

On to `Cc1cc(C(=O)NC2CCc3ncccc3C2)nnc1N1CCc2ncc(C(F)(F)F)cc2C1` (stereo not drawn) [Example 501, 5-methyl-N-(5,6,7,8-tetrahydroquinolin-6-yl)-6-(3-(trifluoromethyl)-7,8-dihydro-1,6-naphthyridin-6(5H)-yl)pyridazine-3-carboxamide], for which the Emax at 30 µM is 109% and the EC50 was 127 nM.

As to `Cc1cc(C(=O)N2CC3(COC3)C2)nnc1N1CCc2ncc(-c3ccnn3C)cc2C1` [Example 565, (5-methyl-6-(3-(1-methyl-1H-pyrazol-5-yl)-7,8-dihydro-1,6-naphthyridin-6(5H)-yl)pyridazin-3-yl)(2-oxa-6-azaspiro[3.3]heptan-6-yl)methanone], the Emax at 30 µM was 72% and the EC50 came out at 128 nM.

For the compound `Cc1c(C#N)nnc(N2CCc3ncc(-c4ccn(CC5CC5)n4)cc3C2)c1C` [Example 10], the Emax was determined as 56% and the EC50 came out at 240 nM.

Regarding `Cc1cc(C(=O)NCc2cnc3ccccc3c2)cnc1N1CCc2ncccc2C1` [compound 140, 6-(7,8-dihydro-5H-1,6-naphthyridin-6-yl)-5-methyl-N-(3-quinolylmethyl)pyridine-3-carboxamide], the Emax at 30 µM came out at 62% and the EC50 amounted to 1030 nM.

Consider `Cc1cc(C(=O)NCc2csc3ccccc23)cnc1N1CCc2ncc(-c3cn(C)nc3C)cc2C1` [Example 452, N-(benzo[b]thiophen-3-ylmethyl)-6-(3-(1,3-dimethyl-1H-pyrazol-4-yl)-7,8-dihydro-1,6-naphthyridin-6(5H)-yl)-5-methylnicotinamide], for which the Emax at 30 µM was 89% and the EC50 amounted to 1790 nM.

Take `Cc1cc(C(=O)NCc2nccs2)cnc1N1CCc2ncc(-c3cn(C)nc3C)cc2C1` [compound 170, 6-[3-(1,3-dimethylpyrazol-4-yl)-7,8-dihydro-5H-1,6-naphthyridin-6-yl]-5-methyl-N-(thiazol-2-ylmethyl)pyridine-3-carboxamide]: the Emax at 30 µM was found to be 103% and the EC50 turned out to be 110 nM.

Take `Cc1cc(C(=O)N2CC(C)C2)nnc1N1CCc2ncc(N3CCCn4nccc43)cc2C1` [Example 549, (6-(3-(6,7-dihydropyrazolo[1,5-a]pyrimidin-4(5H)-yl)-7,8-dihydro-1,6-naphthyridin-6(5H)-yl)-5-methylpyridazin-3-yl)(3-methylazetidin-1-yl)methanone]: the Emax at 30 µM is 120% and the EC50 came out at 56 nM.

On to `Cc1c(C#N)nnc(N2CCc3ncc(C(F)(F)F)cc3C2)c1C` [Example 303, 4,5-dimethyl-6-(3-(trifluoromethyl)-7,8-dihydro-1,6-naphthyridin-6(5H)-yl)pyridazine-3-carbonitrile], for which the Emax at 30 µM came out at 48% and the EC50 turned out to be 1600 nM.

In the case of `Cc1cc(C#N)cnc1N1CCc2ncc(NCC3CCCO3)cc2C1` (stereo not drawn) [Example 9], the maximal effect (Emax) at 30 µM was found to be 76% and the EC50 is 785 nM.

For the compound `Cc1cc(C(=O)NCc2ncc(Cl)cn2)cnc1N1CCc2ncccc2C1` [compound 146, N-[(5-chloropyrimidin-2-yl)methyl]-6-(7,8-dihydro-5H-1,6-naphthyridin-6-yl)-5-methyl-pyridine-3-carboxamide], the Emax at 30 µM stood at 56% and the EC50 is not below 10000 nM.

Turning to `Cc1nc(Cl)c(C)c(N2Cc3cc(N)cnc3C(C)(C)C2)n1` [compound 219, 6-(6-chloro-2,5-dimethylpyrimidin-4-yl)-8,8-dimethyl-5,6,7,8-tetrahydro-1,6-naphthyridin-3-amine], the Emax was found to be 37% and the EC50 is not below 10000 nM.

Turning to `Cc1cc(C#N)cnc1N1CCc2ncc(N3CCC(C)n4nccc43)cc2C1` (stereo not drawn) [Example 386, 5-methyl-6-(3-(7-methyl-6,7-dihydropyrazolo[1,5-a]pyrimidin-4(5H)-yl)-7,8-dihydro-1,6-naphthyridin-6(5H)-yl)nicotinonitrile], the Emax at 30 µM turned out to be 103% and the 50% effective concentration (EC50) was found to be 76 nM.

With `Cc1cc(C#N)cnc1N1CCc2ncc(Oc3cccc(F)c3)cc2C1` [compound 181, 6-[3-(3-fluorophenoxy)-7,8-dihydro-5H-1,6-naphthyridin-6-yl]-5-methyl-pyridine-3-carbonitrile], the maximal response (Emax) at 30 µM was determined as 90% and the EC50 worked out at 141 nM.

Turning to `Cc1ccc(-c2cnc3c(c2)CN(c2ncc(C#N)cc2C)CC3)cn1` [compound 187, 5-methyl-6-[3-(6-methyl-3-pyridyl)-7,8-dihydro-5H-1,6-naphthyridin-6-yl]pyridine-3-carbonitrile], the Emax at 30 µM is 108% and the EC50 stood at 138 nM.

With `Cc1nc(Cl)c(C)c(N2Cc3cc(Nc4ccnn4C)cnc3C(C)(C)C2)n1` [compound 239, 6-(6-chloro-2,5-dimethylpyrimidin-4-yl)-8,8-dimethyl-N-(1-methyl-1H-pyrazol-5-yl)-5,6,7,8-tetrahydro-1,6-naphthyridin-3-amine], the Emax at 30 µM worked out at 58% and the EC50 is 911 nM.

Regarding `Cc1cc(C(=O)N2CC(c3cccnc3)C2)nnc1N1CCc2ncc(-n3cccn3)cc2C1` [Example 535, (6-(3-(1H-pyrazol-1-yl)-7,8-dihydro-1,6-naphthyridin-6(5H)-yl)-5-methylpyridazin-3-yl)(3-(pyridin-3-yl)azetidin-1-yl)methanone], the Emax at 30 µM was 84% and the EC50 is 85 nM.

With `Cc1cc(C(=O)N2CC3(C2)CC(F)(F)C3)nnc1N1CCc2ncc(N3CCCn4nccc43)cc2C1` [Example 555, (6,6-difluoro-2-azaspiro[3.3]heptan-2-yl)(6-(3-(6,7-dihydropyrazolo[1,5-a]pyrimidin-4(5H)-yl)-7,8-dihydro-1,6-naphthyridin-6(5H)-yl)-5-methylpyridazin-3-yl)methanone], the Emax at 30 µM amounted to 83% and the EC50 amounted to 48 nM.

Consider `COC1CN(C(=O)c2cc(C)c(N3CCc4ncc(CC(F)(F)F)cc4C3)nn2)C1` [Example 589, (3-methoxyazetidin-1-yl)(5-methyl-6-(3-(2,2,2-trifluoroethyl)-7,8-dihydro-1,6-naphthyridin-6(5H)-yl)pyridazin-3-yl)methanone], for which the Emax at 30 µM stood at 99% and the EC50 is 173 nM.

In the case of `Cc1cc(C(=O)NCc2cncs2)nnc1N1CCc2ncc(-c3ccnn3C)cc2C1` [Example 516, 5-methyl-6-(3-(1-methyl-1H-pyrazol-5-yl)-7,8-dihydro-1,6-naphthyridin-6(5H)-yl)-N-(thiazol-5-ylmethyl)pyridazine-3-carboxamide], the Emax at 30 µM came to 102% and the concentration giving a half-maximal response (EC50) is 31 nM.

On to `COCc1nc(Cl)c(C)c(N2CCc3ncc(Br)cc3C2)n1` [compound 211, 3-bromo-6-(6-chloro-2-(methoxymethyl)-5-methylpyrimidin-4-yl)-5,6,7,8-tetrahydro-1,6-naphthyridine], for which the Emax is 99% and the EC50 is 123 nM.

As to `Cc1cc(C#N)nnc1N1CCc2ncc(-n3cccn3)cc2C1` [Example 400, 6-(3-(1H-pyrazol-1-yl)-7,8-dihydro-1,6-naphthyridin-6(5H)-yl)-5-methylpyridazine-3-carbonitrile], the Emax at 30 µM came to 56% and the EC50 worked out at 1050 nM.

(Values after patent publication US20250230155A1 (Vanderbilt University, priority 2021, published 2025).)
